Peptide text beside a SMILES is read from it. * marks the point of attachment. Cbz = O=C(OCc1ccccc1)*
What was measured:
[1] = tested on: α1-antitrypsin deficient dhIPSC derived hepatocytes; assay: proteosome blocking assay with ELISA for α1-antitrypsin; format: cell-based, human; conditions: MG132 added to medium overnight (16 hours), A1ATD vs control hIPSC derived hepatocytes, FIG. 10
Experimental: High binding surface COSTAR 96-well plates (Corning, N.Y., USA) were coated overnight with affinity-purified rabbit polyclonal antibodies against α1-antitrypsin (Abcam 31657, Cambridge, UK) at 2 μg/ml in carbonate/bicarbonate buffer (Na2CO3/NAHCO3, pH 9.5). After washing (0.9% w/v NaCl, 0.05% v/v Tween 20), the plates were blocked for two hours in blocking buffer (PBS, 0.25% w/v BSA, 0.05% v/v Tween 20). Samples (culture medium or cells lysed in 50 μl of Nonidet lysis buffer (150 mM NaCl, 50 mM Tris-Cl, pH 7.5, 1% (v/v) Nonidet P-40), and standards (plasma purified M or Z α1-antitrypsin) were diluted in blocking buffer and 50 μl added to each well then incubated for two hours. After washing, the wells were incubated with either 9C5 or 2C1 monoclonal antibodies (1 μg/ml diluted in blocking buffer), and incubated for two hours. Bound monoclonal antibodies were detected with rabbit anti-mouse IgG HRP-labelled antibody (Sigma Aldrich, Haverhill, UK, 1:20,000) for one hour. The reaction was developed with TMB liquid substrate (Sigma Aldrich, Haverhill, UK) for 10 minutes in the dark and the reaction was stopped with 1 M H2SO4. Absorbance was read at 450 nm on a Thermo-max microplate reader (Molecular Devices, Sunnyvale, Calif., U.S.A.). […]

[2] = tested on: dhIPSC derived hepatocytes; assay: Metabolic enzyme response to glucagon stimulation (qRT-PCR of PEPCK, G6P, IGFBP1); format: cell-based, human; conditions: 100 nM glucagon hydrochloride; 0, 1, 2 and 3 hours after stimulation; FIG. 16
Experimental: dhIPSC derived hepatocytes were incubated for six hours in serum-free, high-glucose DMEM supplemented with 2 mM L-glutamine, […] penicillin, 100 ug/ml streptomycin, and 0.5% Bovine Serum Albumin (all from Sigma-Aldrich). Cells were stimulated with 100 nM glucagon […] hydrochloride (Novo Nordisk, Bagsvard, Denmark) or PBS (Sigma-Aldrich) as a negative control. Total RNA was harvested using the RNeasy Kit (Qiagen, Hilden, Germany) at 0, 1, 2 or 3 hours after stimulation and purified as per manufacturer's guidelines. Reverse transcription was performed on 1 ug RNA in a 25 μl reaction mixture containing 2000 Moloney Murine Leukemia Virus Reverse Transcriptase, 500 ng random primers and 0.5 mM deoxynucleotide triphosphates (all from Promega, Wis., Ma) as per manufacturer's guidelines. cDNA was subjected to real-time quantitative PCR on an ABI7900 detection system (Applied Biosystems, Foster City, Calif.) using Tagman PCR Mastermix (Applied Biosystems) and gene-specific forward and reverse primers and fluorogenic probes. All results were normalised to human 36B4 as a reference gene. Primers and probes for PEPCK (Hs00159918—1), G6P (Hs00609178—1) and IGFBP1 (Hs00426285 ml) were purchased as premade stocks from Applied Biosystems. Oligonucleotides for 36B4 were designed in-house and synthesised by Sigma-Aldrich (Forward, 5′-[…]-3′; Reverse, 5′-[…]-3′; Probe, 5′-[JOEE][…][TAMRA]-3′).

Molecule	intracellular α1-antitrypsin polymers after proteasome inhibition [1]	expression of glucagon-responsive genes PEPCK, G6P and IGFBP1 [2]
CC(C)C[C@@H](C=O)NC(=O)[C@H](CC(C)C)NC(=O)[C@H](CC(C)C)NC(=O)OCc1ccccc1 [MG132] (Cbz-Leu-Leu-Leu-aldehyde)	disease specific intracellular increase in α1-antitrypsin polymers	
glucagon hydrochloride		induction of expression of three canonical glucagon-responsive genes

Reference: patent publication US9284576B2, “In vitro hepatic differentiation” (Cambride Enterprise Limited, priority 2010, dated 2016)
